Experimental data from the NIST ThermoML archive (doi:10.1016/j.fluid.2013.06.021).

Test: xn = mol fraction of the nth substance listed
Conditions: 101 kPa, Liquid; for speed of sound: Sing-around technique in a fixed-path interferometer; for mass density: Vibrating tube method; for viscosity: Capillary tube (Ostwald / Ubbelohde) method

CCCCOCCO [2-butoxyethan-1-ol] + CC(C)O
Conditions	mass density [kg/m3]	speed of sound [m/s]	viscosity [mPa·s]
293.15 K, x1 = 0.0539	796.164	1178.8	–
293.15 K, x1 = 0.1088	805.962	1190.2	–
293.15 K, x1 = 0.1607	814.567	1200.9	–
293.15 K, x1 = 0.2041	821.305	1210	–
293.15 K, x1 = 0.2567	828.971	1220.4	–
293.15 K, x1 = 0.3095	836.163	1230.7	–
293.15 K, x1 = 0.4041	847.973	1247.7	–
293.15 K, x1 = 0.5041	859.135	1263.9	–
293.15 K, x1 = 0.6113	869.832	1279.6	–
293.15 K, x1 = 0.7078	878.523	1292.2	–
293.15 K, x1 = 0.8095	886.841	1304	–
293.15 K, x1 = 0.857	890.465	1309.2	–
293.15 K, x1 = 0.9069	894.11	1314.2	–
293.15 K, x1 = 0.9527	897.317	1318.8	–
298.15 K, x1 = 0.0539	791.98	1160.9	–
298.15 K, x1 = 0.054	–	–	2.105
298.15 K, x1 = 0.1088	801.77	1172.5	2.114
298.15 K, x1 = 0.1607	810.37	1183.5	2.132
298.15 K, x1 = 0.2041	817.11	1192.6	2.145
298.15 K, x1 = 0.2567	824.79	1203	2.166
298.15 K, x1 = 0.3095	831.99	1213.2	2.184
298.15 K, x1 = 0.4041	843.83	1230.4	2.247
298.15 K, x1 = 0.5041	855	1246.6	2.327
298.15 K, x1 = 0.6113	865.69	1262.2	2.427
298.15 K, x1 = 0.7078	874.37	1274.7	–
298.15 K, x1 = 0.7079	–	–	2.538
298.15 K, x1 = 0.8095	882.67	1286.7	2.648
298.15 K, x1 = 0.857	886.29	1291.8	2.714
298.15 K, x1 = 0.9069	889.93	1296.8	2.778
298.15 K, x1 = 0.9527	893.12	1301.5	2.838
303.15 K, x1 = 0.0539	787.87	1143.4	–
303.15 K, x1 = 0.054	–	–	1.803
303.15 K, x1 = 0.1088	797.64	1155.2	1.819
303.15 K, x1 = 0.1607	806.24	1166.2	1.847
303.15 K, x1 = 0.2041	812.99	1175.3	1.866
303.15 K, x1 = 0.2567	820.65	1185.7	1.889
303.15 K, x1 = 0.3095	827.86	1195.9	1.923
303.15 K, x1 = 0.4041	839.68	1213	1.988
303.15 K, x1 = 0.5041	850.85	1229.2	2.079
303.15 K, x1 = 0.6113	861.54	1244.9	2.194
303.15 K, x1 = 0.7078	870.2	1257.7	–
303.15 K, x1 = 0.7079	–	–	2.308
303.15 K, x1 = 0.8095	878.49	1269.7	2.427
303.15 K, x1 = 0.857	882.1	1274.8	2.487
303.15 K, x1 = 0.9069	885.74	1280	2.549
303.15 K, x1 = 0.9527	888.94	1284.7	2.604
308.15 K, x1 = 0.0539	783.58	1125.5	–
308.15 K, x1 = 0.054	–	–	1.576
308.15 K, x1 = 0.1088	793.36	1137.7	1.587
308.15 K, x1 = 0.1607	801.96	1148.9	1.606
308.15 K, x1 = 0.2041	808.71	1157.9	1.624
308.15 K, x1 = 0.2567	816.4	1168.5	1.654
308.15 K, x1 = 0.3095	823.61	1178.8	1.678
308.15 K, x1 = 0.4041	835.44	1195.9	1.734
308.15 K, x1 = 0.5041	846.62	1212.1	1.809
308.15 K, x1 = 0.6113	857.32	1228	1.886
308.15 K, x1 = 0.7078	865.98	1240.6	–
308.15 K, x1 = 0.7079	–	–	1.968
308.15 K, x1 = 0.8095	874.28	1252.6	2.056
308.15 K, x1 = 0.857	877.88	1257.8	2.101
308.15 K, x1 = 0.9069	881.52	1263	2.145
308.15 K, x1 = 0.9527	884.72	1267.7	2.188
313.15 K, x1 = 0.0539	778.94	1108	–
313.15 K, x1 = 0.1088	788.77	1120.2	–
313.15 K, x1 = 0.1607	797.4	1131.4	–
313.15 K, x1 = 0.2041	804.16	1140.5	–
313.15 K, x1 = 0.2567	811.87	1151.3	–
313.15 K, x1 = 0.3095	819.11	1161.5	–
313.15 K, x1 = 0.4041	830.99	1178.7	–
313.15 K, x1 = 0.5041	842.22	1195.1	–
313.15 K, x1 = 0.6113	852.97	1211.1	–
313.15 K, x1 = 0.7078	861.66	1223.7	–
313.15 K, x1 = 0.8095	870.01	1235.8	–
313.15 K, x1 = 0.857	873.63	1241	–
313.15 K, x1 = 0.9069	877.27	1246.2	–
313.15 K, x1 = 0.9527	880.47	1250.8	–
